These results are taken from US12252524B2, “GIP/GLP1 co-agonist compounds” (Eli Lilly and Company, priority 2018, dated 2025).

Assay [1] concerns the target human GLP-1 receptor (GLP-1R) (Homo sapiens, UniProt P43220). Description: cAMP pharmacological functional assay in presence of casein, hGLP-1R. It counts as cell-based. Particulars: HEK293 cells expressing hGLP-1R, 0.1% Casein, geometric mean; read-out: hGLP1R cAMP Rel EC50 nM (SEM, n).
Assay [2] has as its target T1, gastric inhibitory peptide receptor (GIPR) (Homo sapiens, UniProt P48546).
T1 sequence (P48546 22-466): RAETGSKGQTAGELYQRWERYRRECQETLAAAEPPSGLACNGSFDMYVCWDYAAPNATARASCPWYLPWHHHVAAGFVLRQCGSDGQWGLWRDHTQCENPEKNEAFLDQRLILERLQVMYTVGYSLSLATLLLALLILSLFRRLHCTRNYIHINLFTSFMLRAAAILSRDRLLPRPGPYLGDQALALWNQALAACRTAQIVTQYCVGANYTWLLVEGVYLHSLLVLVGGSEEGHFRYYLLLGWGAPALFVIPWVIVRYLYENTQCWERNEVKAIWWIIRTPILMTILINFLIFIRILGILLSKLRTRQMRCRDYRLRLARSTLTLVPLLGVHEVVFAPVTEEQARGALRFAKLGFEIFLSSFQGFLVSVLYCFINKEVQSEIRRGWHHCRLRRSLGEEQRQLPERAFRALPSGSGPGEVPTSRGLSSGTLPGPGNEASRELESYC
Description: cAMP pharmacological functional assay in presence of casein, hGIPR. It counts as cell-based. Particulars: HEK293 cells expressing hGIPR, 0.1% Casein, geometric mean; read-out: hGIPR cAMP Rel EC50 nM (SEM, n).

SMILES strings stand for the structures. Numbered stars: 1 amine (or outer) side, 2 acyl side, 3 side chain; on linkers, the order of the positions; unused ones are H or OH. Square brackets hold non-standard residues; d marks the D form. Side chains are listed from the residue outwards. Peptide text beside a SMILES is read from it. * marks the point of attachment. Ala(1H-tetrazol-5-yl) = N[C@@H](Cc1nnn[nH]1)C(=O)O; C20 diacid = O=C(O)CCCCCCCCCCCCCCCCCCC(=O)*; αMePhe(2-F) = C[C@](N)(Cc1ccccc1F)C(=O)O; γGlu = O=C(O)[C@H](CCC(=O)[*:2])N[*:1]; αMeF = C[C@](N)(Cc1ccccc1)C(=O)O; 2Pal = N[C@@H](Cc1ccccn1)C(=O)O; αMeL = CC(C)C[C@](C)(N)C(=O)O; AEEA = NCCOCCOCC(=O)O; Aib = CC(C)(N)C(=O)O

Sequence of human GLP-1 receptor (GLP-1R) (P43220 24-463): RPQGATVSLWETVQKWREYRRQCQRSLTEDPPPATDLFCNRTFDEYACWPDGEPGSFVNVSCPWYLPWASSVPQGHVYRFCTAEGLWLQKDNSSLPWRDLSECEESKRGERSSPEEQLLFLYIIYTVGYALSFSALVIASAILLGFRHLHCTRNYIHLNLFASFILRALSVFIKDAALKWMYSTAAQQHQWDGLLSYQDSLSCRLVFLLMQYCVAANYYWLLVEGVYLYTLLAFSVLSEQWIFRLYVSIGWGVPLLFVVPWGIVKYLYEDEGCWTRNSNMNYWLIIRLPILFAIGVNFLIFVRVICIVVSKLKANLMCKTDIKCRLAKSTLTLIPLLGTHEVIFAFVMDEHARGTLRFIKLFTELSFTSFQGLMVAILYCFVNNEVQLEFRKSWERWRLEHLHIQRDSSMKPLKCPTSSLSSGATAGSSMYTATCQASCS

For `CC[C@H](C)[C@H](NC(=O)[C@H](CC(C)C)NC(=O)[C@H](Cc1ccc(O)cc1)NC(=O)[C@@H]1CCCN1C(=O)[C@@H](NC(=O)[C@H](Cc1ccccc1)NC(=O)[C@H](CCC(=O)O)NC(=O)C(C)(C)NC(=O)[C@H](CCC(N)=O)NC(=O)[C@H](C)NC(=O)[C@H](CCCCNC(=O)COCCOCCNC(=O)COCCOCCNC(=O)CC[C@H](NC(=O)CCCCCCCCCCCCCCCCCCC(=O)O)C(=O)O)NC(=O)[C@H](CCC(=O)O)NC(=O)[C@H](CC(=O)O)NC(=O)[C@H](CC(C)C)NC(=O)[C@](C)(CC(C)C)NC(=O)[C@@H](NC(=O)[C@H](CO)NC(=O)[C@H](Cc1ccc(O)cc1)NC(=O)[C@H](CC(=O)O)NC(=O)[C@H](CO)NC(=O)[C@@H](NC(=O)[C@](C)(Cc1ccccc1F)NC(=O)[C@@H](NC(=O)CNC(=O)[C@H](CCC(=O)O)NC(=O)C(C)(C)NC(=O)[C@@H](N)Cc1ccc(O)cc1)[C@@H](C)O)[C@@H](C)O)[C@@H](C)CC)[C@@H](C)CC)C(=O)N[C@@H](CCC(=O)O)C(=O)NCC(=O)NCC(=O)N1CCC[C@H]1C(=O)N[C@@H](CO)C(=O)N[C@@H](CO)C(=O)NCC(=O)N[C@@H](C)C(=O)N1CCC[C@H]1C(=O)N1CCC[C@H]1C(=O)N1CCC[C@H]1C(=O)N[C@@H](CO)C(N)=O` [Example 151] (H-Y[Aib]EGT[αMePhe(2-F)]TSDYSI[αMeL]LDEK([AEEA-AEEA-γGlu-C20 diacid])AQ[Aib]EFIPYLIEGGPSSGAPPPS-NH2; N-terminus assumed), the figures for the EC50 in assay [1] and in assay [2] were 1.6 nM and 0.41 nM, respectively.

With `CC[C@H](C)[C@H](NC(=O)[C@H](CC(C)C)NC(=O)[C@H](Cc1ccc(O)cc1)NC(=O)[C@H](CCC(=O)O)NC(=O)[C@@H](NC(=O)[C@H](Cc1ccccc1)NC(=O)[C@H](CCC(=O)O)NC(=O)C(C)(C)NC(=O)[C@H](CCC(N)=O)NC(=O)[C@H](C)NC(=O)[C@H](CCCCNC(=O)COCCOCCNC(=O)COCCOCCNC(=O)CC[C@H](NC(=O)CCCCCCCCCCCCCCCCCCC(=O)O)C(=O)O)NC(=O)[C@H](CCC(=O)O)NC(=O)[C@H](CC(=O)O)NC(=O)[C@H](CC(C)C)NC(=O)[C@](C)(CC(C)C)NC(=O)[C@@H](NC(=O)[C@H](CO)NC(=O)[C@H](Cc1nn[nH]n1)NC(=O)[C@H](CC(=O)O)NC(=O)[C@H](CO)NC(=O)[C@@H](NC(=O)[C@](C)(Cc1ccccc1F)NC(=O)[C@@H](NC(=O)CNC(=O)[C@H](CCC(=O)O)NC(=O)C(C)(C)NC(=O)[C@@H](N)Cc1ccc(O)cc1)[C@@H](C)O)[C@@H](C)O)[C@@H](C)CC)[C@@H](C)CC)C(=O)N[C@@H](CCC(=O)O)C(=O)NCC(=O)NCC(=O)N1CCC[C@H]1C(=O)N[C@@H](CO)C(=O)N[C@@H](CO)C(=O)NCC(=O)N[C@@H](C)C(=O)N1CCC[C@H]1C(=O)N1CCC[C@H]1C(=O)N1CCC[C@H]1C(=O)N[C@@H](CO)C(N)=O` [Example 155] (H-Y[Aib]EGT[αMePhe(2-F)]TSD[Ala(1H-tetrazol-5-yl)]SI[αMeL]LDEK([AEEA-AEEA-γGlu-C20 diacid])AQ[Aib]EFIEYLIEGGPSSGAPPPS-NH2; N-terminus assumed), the EC50 in assay [1] worked out at 0.495 nM; in assay [2], 0.266 nM.

For the compound `CC[C@H](C)[C@H](NC(=O)[C@H](CC(C)C)NC(=O)[C@H](Cc1ccc(O)cc1)NC(=O)[C@H](CCC(=O)O)NC(=O)[C@@H](NC(=O)[C@H](Cc1ccccc1)NC(=O)[C@H](CCC(=O)O)NC(=O)C(C)(C)NC(=O)[C@H](CCC(N)=O)NC(=O)[C@H](C)NC(=O)[C@H](CCCCNC(=O)COCCOCCNC(=O)COCCOCCNC(=O)CC[C@H](NC(=O)CCCCCCCCCCCCCCCCCCC(=O)O)C(=O)O)NC(=O)[C@H](CCC(=O)O)NC(=O)[C@H](CC(=O)O)NC(=O)[C@H](CC(C)C)NC(=O)[C@](C)(CC(C)C)NC(=O)[C@@H](NC(=O)[C@H](CO)NC(=O)[C@H](Cc1ccccn1)NC(=O)[C@H](CC(=O)O)NC(=O)[C@H](CO)NC(=O)[C@@H](NC(=O)[C@](C)(Cc1ccccc1F)NC(=O)[C@@H](NC(=O)CNC(=O)[C@H](CCC(=O)O)NC(=O)C(C)(C)NC(=O)[C@@H](N)Cc1ccc(O)cc1)[C@@H](C)O)[C@@H](C)O)[C@@H](C)CC)[C@@H](C)CC)C(=O)N[C@@H](CCC(=O)O)C(=O)NCC(=O)NCC(=O)N1CCC[C@H]1C(=O)N[C@@H](CO)C(=O)N[C@@H](CO)C(=O)NCC(=O)N[C@@H](C)C(=O)N1CCC[C@H]1C(=O)N1CCC[C@H]1C(=O)N1CCC[C@H]1C(=O)N[C@@H](CO)C(N)=O` [Example 156] (H-Y[Aib]EGT[αMePhe(2-F)]TSD[2Pal]SI[αMeL]LDEK([AEEA-AEEA-γGlu-C20 diacid])AQ[Aib]EFIEYLIEGGPSSGAPPPS-NH2), the concentration for a half-maximal effect (EC50) in assay [1] was 0.638 nM; in assay [2], above 30 nM.

Turning to `CC[C@H](C)[C@H](NC(=O)[C@H](CC(C)C)NC(=O)[C@H](Cc1ccc(O)cc1)NC(=O)[C@H](CCC(=O)O)NC(=O)[C@@H](NC(=O)[C@H](Cc1ccccc1)NC(=O)[C@H](CCC(=O)O)NC(=O)C(C)(C)NC(=O)[C@H](CCC(N)=O)NC(=O)[C@H](C)NC(=O)[C@H](CCCCNC(=O)COCCOCCNC(=O)COCCOCCNC(=O)CC[C@H](NC(=O)CCCCCCCCCCCCCCCCCCC(=O)O)C(=O)O)NC(=O)[C@H](CCC(=O)O)NC(=O)[C@H](CC(=O)O)NC(=O)[C@H](CC(C)C)NC(=O)[C@](C)(CC(C)C)NC(=O)[C@@H](NC(=O)[C@H](CO)NC(=O)[C@](C)(Cc1ccccc1)NC(=O)[C@H](CC(=O)O)NC(=O)[C@H](CO)NC(=O)[C@@H](NC(=O)[C@](C)(Cc1ccccc1F)NC(=O)[C@@H](NC(=O)CNC(=O)[C@H](CCC(=O)O)NC(=O)C(C)(C)NC(=O)[C@@H](N)Cc1ccc(O)cc1)[C@@H](C)O)[C@@H](C)O)[C@@H](C)CC)[C@@H](C)CC)C(=O)N[C@@H](CCC(=O)O)C(=O)NCC(=O)NCC(=O)N1CCC[C@H]1C(=O)N[C@@H](CO)C(=O)N[C@@H](CO)C(=O)NCC(=O)N[C@@H](C)C(=O)N1CCC[C@H]1C(=O)N1CCC[C@H]1C(=O)N1CCC[C@H]1C(=O)N[C@@H](CO)C(N)=O` [Example 159] (H-Y[Aib]EGT[αMePhe(2-F)]TSD[αMeF]SI[αMeL]LDEK([AEEA-AEEA-γGlu-C20 diacid])AQ[Aib]EFIEYLIEGGPSSGAPPPS-NH2), the EC50 in assay [1] was determined as 0.33 nM; in assay [2], 4.6 nM.

For `CC[C@H](C)[C@H](NC(=O)[C@H](CC(C)C)NC(=O)[C@H](Cc1ccc(O)cc1)NC(=O)[C@@H](CCC(=O)O)NC(=O)[C@@H](NC(=O)[C@H](Cc1ccccc1)NC(=O)[C@@H](NC(=O)C(C)(C)NC(=O)[C@H](CCC(N)=O)NC(=O)[C@H](C)NC(=O)[C@H](CCCCNC(=O)COCCOCCNC(=O)COCCOCCNC(=O)CC[C@H](NC(=O)CC[C@H](NC(=O)CCCCCCCCCCCCCCCCCCC(=O)O)C(=O)O)C(=O)O)NC(=O)[C@H](CCC(=O)O)NC(=O)[C@H](CC(=O)O)NC(=O)[C@H](CC(C)C)NC(=O)[C@](C)(CC(C)C)NC(=O)[C@@H](NC(=O)[C@H](CO)NC(=O)[C@H](Cc1c[nH]cn1)NC(=O)[C@H](CC(=O)O)NC(=O)[C@H](CO)NC(=O)[C@@H](NC(=O)[C@](C)(Cc1ccccc1F)NC(=O)[C@@H](NC(=O)CNC(=O)[C@H](CCC(=O)O)NC(=O)C(C)(C)NC(=O)[C@@H](N)Cc1ccc(O)cc1)[C@@H](C)O)[C@@H](C)O)[C@@H](C)CC)[C@@H](C)O)[C@@H](C)CC)C(=O)N[C@@H](CCC(=O)O)C(=O)NCC(=O)NCC(=O)N1CCC[C@H]1C(=O)N[C@@H](CO)C(=O)N[C@@H](CO)C(=O)NCC(N)=O` [Example 161] (H-Y[Aib]EGT[αMePhe(2-F)]TSDHSI[αMeL]LDEK([AEEA-AEEA-γGlu-γGlu-C20 diacid])AQ[Aib]TFI[dE]YLIEGGPSSG-NH2), the EC50 in assay [1] turned out to be 4.8 nM; in assay [2] it was 0.254 nM.

With `CC[C@H](C)[C@H](NC(=O)[C@H](CC(C)C)NC(=O)[C@H](Cc1c[nH]cn1)NC(=O)[C@@H](CCC(=O)O)NC(=O)[C@@H](NC(=O)[C@H](Cc1ccccc1)NC(=O)[C@@H](NC(=O)C(C)(C)NC(=O)[C@H](CCC(N)=O)NC(=O)[C@H](C)NC(=O)[C@H](CCCCNC(=O)COCCOCCNC(=O)COCCOCCNC(=O)CC[C@H](NC(=O)CC[C@H](NC(=O)CCCCCCCCCCCCCCCCCCC(=O)O)C(=O)O)C(=O)O)NC(=O)[C@H](CCC(=O)O)NC(=O)[C@H](CC(=O)O)NC(=O)[C@H](CC(C)C)NC(=O)[C@](C)(CC(C)C)NC(=O)[C@@H](NC(=O)[C@H](CO)NC(=O)[C@H](Cc1c[nH]cn1)NC(=O)[C@H](CC(=O)O)NC(=O)[C@H](CO)NC(=O)[C@@H](NC(=O)[C@](C)(Cc1ccccc1F)NC(=O)[C@@H](NC(=O)CNC(=O)[C@H](CCC(=O)O)NC(=O)C(C)(C)NC(=O)[C@@H](N)Cc1ccc(O)cc1)[C@@H](C)O)[C@@H](C)O)[C@@H](C)CC)[C@@H](C)O)[C@@H](C)CC)C(=O)N[C@@H](CCC(=O)O)C(=O)NCC(=O)NCC(=O)N1CCC[C@H]1C(=O)N[C@@H](CO)C(=O)N[C@@H](CO)C(=O)NCC(N)=O` [Example 162] (H-Y[Aib]EGT[αMePhe(2-F)]TSDHSI[αMeL]LDEK([AEEA-AEEA-γGlu-γGlu-C20 diacid])AQ[Aib]TFI[dE]HLIEGGPSSG-NH2; N-terminus assumed), the values for the EC50 in assay [1] and in assay [2] were 36 nM and 4.56 nM, respectively.

What is called EC50 is the concentration at which the effect is half-maximal.
